These are literature values, as cited in patent US6288110A, “Pharmaceutical compositions comprising disulfiram” (Yeda Research and Development Co Ltd., priority 1998, dated 2001).

SMILES strings stand for the structures.

For this data set the following is noted: non-enzymatic degradation; cited from earlier work.

In the case of `CCN(CC)C(=S)S` [DDC, diethyldithiocarbamate], the “further metabolism of DDC” value is “non-enzymatic degradation to diethylamine (DEA)”.
